According to patent US20150197492A1, “NOVEL INDENO[1,2-c]QUINOLIN-11-ONE DERIVATIVES, PREPARATION METHOD AND APPLICATION THEREOF” (National Defense Medical Center, priority 2014, published 2015):

Key:
Type in all cases: cell-based
human PC-3 cells = experiment: Sulforhodamine B (SRB) assay, cytotoxicity against PC-3 cells; conditions: SRB assay, PC-3 cells
Method: Add 5% Fetal Bovine Serum (FBS) to 96-well plate and fix the cells with 10% TCA after 24 hours of incubation and add the compound (T0). Add DMSO and culture for another 48 hours and the cells are fixed in 0.4% (W/V), 10% TCA and SRB, and […]. Excess SRB is washed off by 1% acetic acid and cells stained with SRB are dissolved in 10 mmol/L Trizma base. The absorbance is measured at 515 nm. The treatment time is 0 (T0), control growth (C) and the increase of the compound (Tx) in the cells are shown below and are used to calculate the increase of the concentration of the compound in percentage. Growth inhibition (GI %) is calculated using the following formula 100−[(TX−T0)/(C−T0)]×100. The 50% growth inhibition concentration (IC50) is used to confirm the concentration of compound and thus results in 50% reduction of the treated cells which control the amount of total protein.
This part of experimental results are SRB assays measuring cytotoxicity of the 26 synthesized compounds against human PC-3 cells and are summarized in Table 1 and 2.

[1] = test system: 55 to 60 cancer cell lines; conditions: 10 μM, 48 hours, all tested cell lines
CCRF-CEM = experiment: cells; conditions: CCRF-CEM (Leukemia), 10 μM, 48 hours
HOP-62 = experiment: cells; conditions: HOP-62 (Non-Small Cell Lung Cancer), 10 μM, 48 hours
NCI-H226 = experiment: cells; conditions: NCI-H226 (Non-Small Cell Lung Cancer), 10 μM, 48 hours
NCI-H522 = experiment: cells; conditions: NCI-H522 (Non-Small Cell Lung Cancer), 10 μM, 48 hours
HCT-15 = experiment: cells; conditions: HCT-15 (Colon Cancer), 10 μM, 48 hours
KM12 = experiment: cells; conditions: KM12 (Colon Cancer), 10 μM, 48 hours
SF-295 = experiment: cells; conditions: SF-295 (CNS Cancer), 10 μM, 48 hours
SF-539 = experiment: cells; conditions: SF-539 (CNS Cancer), 10 μM, 48 hours
SNB-19 = experiment: cells; conditions: SNB-19 (CNS Cancer), 10 μM, 48 hours
MALME-3M = experiment: cells; conditions: MALME-3M (Melanoma), 10 μM, 48 hours
M14 = experiment: cells; conditions: M14 (Melanoma), 10 μM, 48 hours
SK-MEL-5 = experiment: cells; conditions: SK-MEL-5 (Melanoma), 10 μM, 48 hours
UACC-257 = experiment: cells; conditions: UACC-257 (Melanoma), 10 μM, 48 hours
OVCAR-5 = experiment: cells; conditions: OVCAR-5 (Ovarian Cancer), 10 μM, 48 hours
OVCAR-8 = experiment: cells; conditions: OVCAR-8 (Ovarian Cancer), 10 μM, 48 hours
NCI/ADR-RES = experiment: cells; conditions: NCI/ADR-RES (Ovarian Cancer), 10 μM, 48 hours
786-0 = experiment: cells; conditions: 786-0 (Renal Cancer), 10 μM, 48 hours
ACHN = experiment: cells; conditions: ACHN (Renal Cancer), 10 μM, 48 hours
CAKI-1 = experiment: cells; conditions: CAKI-1 (Renal Cancer), 10 μM, 48 hours
RXF 393 = experiment: cells; conditions: RXF 393 (Renal Cancer), 10 μM, 48 hours
SN12C = experiment: cells; conditions: SN12C (Renal Cancer), 10 μM, 48 hours
UO-31 = experiment: cells; conditions: UO-31 (Renal Cancer), 10 μM, 48 hours
DU-145 = experiment: cells; conditions: DU-145 (Prostate Cancer), 10 μM, 48 hours
MCF7 = experiment: cells; conditions: MCF7 (Breast Cancer), 10 μM, 48 hours
T-47D = experiment: cells; conditions: T-47D (Breast Cancer), 10 μM, 48 hours

| SMILES | Toxicity (%) (human PC-3 cells) | GI % (10 μM) (human PC-3 cells) | Mean (mean growth percentage of the tested cancer cell lines) [1] | growth percentage (CCRF-CEM) | growth percentage (HOP-62) | growth percentage (NCI-H226) | growth percentage (NCI-H522) | growth percentage (HCT-15) | growth percentage (KM12) | growth percentage (SF-295) | growth percentage (SF-539) | growth percentage (SNB-19) | growth percentage (MALME-3M) | growth percentage (M14) | growth percentage (SK-MEL-5) | growth percentage (UACC-257) | growth percentage (OVCAR-5) | growth percentage (OVCAR-8) | growth percentage (NCI/ADR-RES) | growth percentage (786-0) | other results |
| --- | --- | --- | --- | --- | --- | --- | --- | --- | --- | --- | --- | --- | --- | --- | --- | --- | --- | --- | --- | --- | --- |
| O=C1c2cc(Cl)ccc2-c2c(N3CCN(C4CCCC4)CC3)nc3ccccc3c21 [SJ-14, 9-Chloro-6-(4-cyclopentylpiperazin-1-yl)-11H-indeno[1,2-c]quinolin-11-one] | 0% | 96.26% | 96.53% | 95.17% | 108.83% | 92.80% | 98.72% | 89.64% | 99.33% | 96.87% | 101.34% | 95.06% | 92.48% | 105.34% | 97.48% | 98.37% | 106.41% | 96.55% | 100.39% | 97.90% | growth percentage (ACHN): 100.03%; growth percentage (CAKI-1): 93.83%; growth percentage (RXF 393): 95.60%; growth percentage (SN12C): 99.08%; growth percentage (UO-31): 72.57%; growth percentage (DU-145): 110.73%; growth percentage (MCF7): 75.18%; growth percentage (T-47D): 92.20% |
| COc1cccc(N2CCN(c3nc4ccccc4c4c3-c3ccc(Cl)cc3C4=O)CC2)c1 [SJ-20, 9-Chloro-6-(4-(3-methoxyphenyl)piperazin-1-yl)-11H-indeno[1,2-c]quinolin-11-one] | 0% | 98.05% | 92.15% | 93.78% | 90.22% | 89.19% | 79.75% | 100.39% | 105.95% | 90.05% | 83.97% | 105.27% | 92.79% | 105.07% | 96.87% | 93.79% | 98.22% | 83.98% | 92.82% | 81.67% | growth percentage (ACHN): 93.51%; growth percentage (CAKI-1): 86.59%; growth percentage (RXF 393): 78.38%; growth percentage (SN12C): 88.17%; growth percentage (UO-31): 86.64%; growth percentage (DU-145): 98.98%; growth percentage (MCF7): 77.46%; growth percentage (T-47D): 86.68% |
| O=C1c2cc(Cl)ccc2-c2c(N3CCN(C(=O)N4CCCCC4)CC3)nc3ccccc3c21 [SJ-23] | 43% | 100% | 100.53% | 109.87% | 96.39% | 96.06% | 99.28% | 99.35% | 101.58% | 97.83% | 92.98% | 108.66% | 102.62% | 101.18% | 92.50% | 104.23% | 102.33% | 104.73% | 107.13% | 105.05% | growth percentage (ACHN): 95.59%; growth percentage (CAKI-1): 90.50%; growth percentage (RXF 393): 107.22%; growth percentage (SN12C): 101.12%; growth percentage (UO-31): 82.74%; growth percentage (DU-145): 114.04%; growth percentage (MCF7): 97.24%; growth percentage (T-47D): 95.99% |
